Here are results for 35 compounds from patent publication US20250092056A1, “URACIL DERIVATIVES HAVING VIRUS REPLICATION INHIBITORY ACTIVITY AND PHARMACEUTICAL COMPOSITION COMPRISING THE SAME” (Shionogi & Co., Ltd., priority 2022, published 2025).

For orientation: IC50 means the point on the concentration scale where inhibition reaches its midpoint.

Structures are written as SMILES. Where “and” joins values, the source holds several entries; their conditions need not be identical. Equal values may be shown once. Read-outs that look alike come from different tables or passages of the source.

One assay relates to SARS-CoV-2. Description: Cytopathic effect (CPE) suppression effect confirmation test using HEK293T/ACE2-TMPRSS2 cells. The class given is cell-based. (Cytopathic effects are the visible damage that an infection or toxin causes in cultured cells.)
The target in assay [1] is Recombinant SARS-CoV-2 3CL Protease (Severe acute respiratory syndrome coronavirus 2 (2019-nCoV) (SARS-CoV-2), UniProt P0DTD1). Description: biochemical. To be noted: 50% SARS-CoV-2 3CL protease inhibitory concentration; read-out: IC50. It counts as biochemical.
Setting [2] is: Severe acute respiratory syndrome coronavirus 2, HEK-293T, 72 h, read-out: EC50 (50% SARS-CoV-2 infected cell death inhibitory concentration), class, HEK293T/ACE2-TMPRSS2 cells, CPE suppression, CellTiter-Glo 2.0 after 3 days culture.
The mark [3] stands for this setting: Severe acute respiratory syndrome coronavirus 2, HEK-293T, 72 h, HEK293T/ACE2-TMPRSS2 cells, CPE suppression, CellTiter-Glo 2.0 after 3 days culture, read-out: EC50 (50% SARS-CoV-2 infected cell death inhibitory concentration), class.
[4] abbreviates: Severe acute respiratory syndrome coronavirus 2, HEK-293T, 72 h, read-out: EC50 (50% SARS-CoV-2 infected cell death inhibitory concentration), HEK293T/ACE2-TMPRSS2 cells, CPE suppression, CellTiter-Glo 2.0 after 3 days culture.

Turning to `N#CCn1c(N2CCC(C(F)(F)F)CC2)c(-c2ccc(F)c(Cl)c2)c(=O)n(-c2cnc3cc(F)ccn23)c1=O` [Compound I-153], the EC50 with SARS-CoV-2 (setting [2]) was less than 0.1 µM. In addition, in assay [1], the IC50 is less than 0.01 µM.

Turning to `N#CCn1c(N2Cc3ccccc3C2)c(Cc2cc(F)c(F)c(F)c2)c(=O)n(-c2nnc3ccccn23)c1=O` [Compound I-156], the EC50 in the assay with SARS-CoV-2 (setting [3]) was less than 0.1 µM. In addition, in assay [1], the IC50 fell in the range of 0.01 to 0.1 µM.

As to `Cn1c(-n2c(=O)c(Cc3cc(F)c(F)c(F)c3)c(N3Cc4ccccc4C3)n(CC#N)c2=O)cc(=O)n1C` [Compound I-157], the EC50 with SARS-CoV-2 (setting [2]) was 1 to 5 µM. Besides, the IC50 in assay [1] was greater than 0.1 µM.

In the case of `Cc1cc(-n2c(=O)c(Cc3cc(F)c(F)c(F)c3)c(N3Cc4ccccc4C3)n(CC#N)c2=O)cc(=O)[nH]1` [Compound I-159], in the assay with SARS-CoV-2 (setting [3]), the EC50 lay within 0.1 to 1 µM. Moreover, the IC50 in assay [1] lay in the range of 0.01 to 0.1 µM.

As to `Cc1cnnc(-n2c(=O)c(-c3ccc(F)c(Cl)c3)c(N3CC4(CCOC4)C3)n(CC#N)c2=O)c1` [Compound I-160], the EC50 in the assay on SARS-CoV-2 (setting [2]) is less than 0.1 µM. In addition, the IC50 in assay [1] was less than 0.01 µM.

As to `Cc1cc(-n2c(=O)c(-c3ccc(F)c(Cl)c3)c(N3CC4(CCOCC4)C3)n(CC#N)c2=O)cc(=O)[nH]1` [Compound I-161], in the assay on SARS-CoV-2 (setting [2]), the EC50 is 1 to 5 µM. The IC50 in assay [1] was less than 0.01 µM.

As for `Cc1cc(-n2c(=O)c(-c3ccc(F)c(Cl)c3)c(N3CCC(C(F)(F)F)CC3)n(CC#N)c2=O)cc(=O)[nH]1` [Compound I-162], the EC50 in the assay with SARS-CoV-2 (setting [3]) lay within 0.1 to 1 µM. In assay [1], the IC50 lay in the range of 0.01 to 0.1 µM.

For `Cc1cc(-n2c(=O)c(-c3ccc(F)c(Cl)c3)c(N3CC4(C3)CC(F)(F)C4)n(CC#N)c2=O)cc(=O)[nH]1` [Compound I-163], the EC50 with SARS-CoV-2 (setting [2]) fell in the range of 0.1 to 1 µM. In addition, the IC50 in assay [1] was less than 0.01 µM.

As to `Cc1[nH]ncc1-n1c(=O)c(Cc2cc(F)c(F)c(F)c2)c(N2Cc3ccccc3C2)n(CC#N)c1=O` [Compound I-164], the EC50 is less than 0.1 µM in the assay with SARS-CoV-2 (setting [2]) and 0.1 to 1 µM in the assay with SARS-CoV-2 (read-out: EC50 (50% SARS-CoV-2 infected cell death inhibitory concentration), class, HEK293T/ACE2-TMPRSS2 cells, CPE suppression, CellTiter-Glo 2.0 after 3 days culture). The IC50 in assay [1] was greater than 0.1 µM.

As to `N#CCn1c(N2Cc3ccccc3C2)c(C(=O)c2cc(F)c(F)c(F)c2)c(=O)n(-c2cncc(Cl)c2)c1=O` [Compound I-165], the EC50 in the assay with SARS-CoV-2 (setting [4]) worked out at 0.228 µM. The IC50 in assay [1] was 3.8 µM.

As to `CC1(C)CCN(c2c(-c3ccc(F)c(Cl)c3)c(=O)n(-c3cc4n(c(=O)c3)CCC4)c(=O)n2CC#N)CC1` [Compound I-166], in the assay on SARS-CoV-2 (setting [2]), the EC50 lay in the range of 1 to 5 µM. In addition, the IC50 in assay [1] is greater than 0.1 µM.

`N#CCn1c(N2Cc3ccccc3C2)c(Sc2cc(F)c(F)c(F)c2)c(=O)n(-c2cncc(Cl)c2)c1=O` [Compound I-167]: the EC50 with SARS-CoV-2 (setting [4]) came to 0.0263 µM. The IC50 in assay [1] amounted to 0.049 µM.

For the compound `N#CCn1c(-c2cc3ccccc3s2)c(Sc2cc(F)c(F)c(F)c2)c(=O)n(-c2cncc(Cl)c2)c1=O` [Compound I-168], in the assay with SARS-CoV-2 (setting [3]), the EC50 was less than 0.1 µM. In assay [1], the IC50 lay within 0.01 to 0.1 µM.

Regarding `N#CCn1c(N2CCC(F)(F)CC2)c(-c2cccc(C#N)c2)c(=O)n(-c2cncc(Cl)c2)c1=O` [Compound I-169], in the assay on SARS-CoV-2 (setting [3]), the EC50 is less than 0.1 µM. Also, the IC50 in assay [1] was 0.01 to 0.1 µM.

`Cc1cc(-n2c(=O)c(-c3ccc(F)c(Cl)c3)c(N3CCC(C)(C)CC3)n(CC#N)c2=O)cc(=O)[nH]1` [Compound I-170]: the EC50 in the assay on SARS-CoV-2 (setting [3]) is less than 0.1 µM. Further, the IC50 in assay [1] was 0.01 to 0.1 µM.

As for `N#CCn1c(N2CC3(CCOC3)C2)c(-c2ccccc2)c(=O)n(-c2cncc(Cl)c2)c1=O` [Compound I-171], the EC50 in the assay on SARS-CoV-2 (setting [2]) was less than 0.1 µM. In assay [1], the IC50 is less than 0.01 µM.

Consider `Cc1cc(-n2c(=O)c(-c3ccc(F)c(Cl)c3)c(N3C[C@H]4CCCC[C@H]4C3)n(CC#N)c2=O)cc(=O)[nH]1` [Compound I-172], for which the EC50 in the assay on SARS-CoV-2 (setting [2]) was less than 0.1 µM. Further, the IC50 in assay [1] is less than 0.01 µM.

In the case of `Cc1cc(-n2c(=O)c(-c3ccc(F)c(Cl)c3)c(-c3cc4ccccc4s3)n(CC#N)c2=O)cc(=O)[nH]1` [Compound I-173], the EC50 with SARS-CoV-2 (setting [2]) is less than 0.1 µM. In addition, in assay [1], the IC50 was less than 0.01 µM.

With `N#CCn1c(N2CCC(F)(F)CC2)c(-c2cccc(Cl)c2)c(=O)n(-c2cncc(Cl)c2)c1=O` [Compound I-174], the EC50 in the assay on SARS-CoV-2 (setting [2]) was less than 0.1 µM. The IC50 in assay [1] is less than 0.01 µM.

For `CC1(C)CN(c2c(-c3cccc(C#N)c3)c(=O)n(-c3cncc(Cl)c3)c(=O)n2CC#N)C1` [Compound I-175], the EC50 in the assay with SARS-CoV-2 (setting [2]) is less than 0.1 µM. Also, in assay [1], the IC50 was less than 0.01 µM.

`CC1(C)CCN(c2c(-c3cccc(C#N)c3)c(=O)n(-c3cncc(Cl)c3)c(=O)n2CC#N)CC1` [Compound I-176]: in the assay with SARS-CoV-2 (setting [2]), the EC50 was less than 0.1 µM. For the same compound, in assay [1], the IC50 is less than 0.01 µM.

For the compound `N#CCn1c(N2CC3(CCOC3)C2)c(-c2cccc(C(F)F)c2)c(=O)n(-c2cncc(Cl)c2)c1=O` [Compound I-177], the EC50 with SARS-CoV-2 (setting [2]) was less than 0.1 µM. The IC50 in assay [1] is less than 0.01 µM.

In the case of `CC1(C)[C@@H]2CN(c3c(-c4cccc(Cl)c4)c(=O)n(-c4cncc(Cl)c4)c(=O)n3CC#N)C[C@@H]21` [Compound I-178], the EC50 with SARS-CoV-2 (setting [2]) was less than 0.1 µM. In addition, the IC50 in assay [1] is less than 0.01 µM.

With `N#CCn1c(N2CC3(CCOC3)C2)c(-c2cc(Cl)cc(C#N)c2)c(=O)n(-c2cncc(Cl)c2)c1=O` [Compound I-179], the EC50 with SARS-CoV-2 (setting [2]) is less than 0.1 µM. For the same compound, the IC50 in assay [1] was less than 0.01 µM.

`N#CCn1c(N2CC3(CCOC3)C2)c(-c2cc(F)cc(Cl)c2)c(=O)n(-c2cncc(Cl)c2)c1=O` [Compound I-180]: the EC50 in the assay on SARS-CoV-2 (setting [2]) was less than 0.1 µM. Besides, in assay [1], the IC50 is less than 0.01 µM.

Turning to `N#CCn1c(N2CC3(CCOC3)C2)c(-c2ccc(F)c(Cl)c2)c(=O)n(-c2cncc(Cl)c2)c1=O` [Compound I-181], the EC50 in the assay with SARS-CoV-2 (setting [2]) was less than 0.1 µM. Moreover, in assay [1], the IC50 is less than 0.01 µM.

Regarding `N#CCn1c(N2CC3(CCOC3)C2)c(-c2cccc(Cl)c2)c(=O)n(-c2cncc(Cl)c2)c1=O` [Compound I-182], the EC50 in the assay on SARS-CoV-2 (setting [4]) came to 0.0017 µM. In addition, the IC50 in assay [1] was 0.0004 µM.

Take `Cc1cc(-n2c(=O)c(-c3ccc(F)c(Cl)c3)c(-c3ccc(C4CC4)cc3)n(CC#N)c2=O)cc(=O)[nH]1` [Compound I-183]: in the assay with SARS-CoV-2 (setting [2]), the EC50 is less than 0.1 µM. Further, in assay [1], the IC50 is 0.01 to 0.1 µM and < 0.01 µM.

For `Cc1cc(-n2c(=O)c(-c3ccc(F)c(Cl)c3)c(C#CC3CC3)n(CC#N)c2=O)cc(=O)[nH]1` [Compound I-184], the EC50 in the assay on SARS-CoV-2 (setting [2]) lay in the range of 0.1 to 1 µM. In assay [1], the IC50 is greater than 0.1 µM.

As to `N#CCc1c(N2Cc3ccccc3C2)n(Cc2cc(F)c(F)c(F)c2)c(=O)n(-c2cncc(Cl)c2)c1=O` [Compound I-185], the EC50 in the assay on SARS-CoV-2 (setting [4]) was 0.0405 µM. In assay [1], the IC50 amounted to 0.027 µM.

As to `Cc1cc(-n2c(=O)c(-c3ccc(F)c(Cl)c3)c(N3CC4(CCOC4)C3)n(CC#N)c2=O)cnn1` [Compound I-188], the EC50 in the assay on SARS-CoV-2 (setting [3]) was 0.1 to 1 µM. Also, the IC50 in assay [1] is 0.01 to 0.1 µM.

Regarding `Cc1cc(-n2c(=O)c(-c3ccc(F)c(Cl)c3)c(-c3nc4ccccc4s3)n(CC#N)c2=O)cc(=O)[nH]1` [Compound I-189], the EC50 with SARS-CoV-2 (setting [2]) was less than 0.1 µM. Further, the IC50 in assay [1] is less than 0.01 µM.

Take `N#CCn1c(N2CC3(CCOC3)C2)c(-c2ccc(F)c(Cl)c2)c(=O)n(-c2cncc(C(F)(F)F)n2)c1=O` [Compound I-190]: the EC50 in the assay on SARS-CoV-2 (setting [2]) is less than 0.1 µM. Moreover, the IC50 in assay [1] was less than 0.01 µM.

On to `N#CCn1c(N2CC3(CCOC3)C2)c(-c2ccc(F)c(Cl)c2)c(=O)n(-c2cncc(Cl)n2)c1=O` [Compound I-191], for which the EC50 with SARS-CoV-2 (setting [2]) is less than 0.1 µM. In addition, the IC50 in assay [1] was less than 0.01 µM.

Consider `Cc1cncc(-n2c(=O)c(-c3ccc(F)c(Cl)c3)c(N3CC4(CCOC4)C3)n(CC#N)c2=O)n1` [Compound I-192], for which the EC50 in the assay on SARS-CoV-2 (setting [2]) was less than 0.1 µM. The IC50 in assay [1] is less than 0.01 µM.
